How the values were obtained:
Type in all cases: in vivo
Conditions in all cases: 1000 g/ha, evaluated after 13 days
[1] = test system: Avena fatua (AVEFA); test: Pre-emergence herbicidal activity, Avena fatua; parameters: key: 5=total damage to plant; 0=no damage to plant
Experimental: (§1) Seeds of a variety of test species were sown in standard soil in pots: Triticum aestivium (TRZAW), Avena fatua (AVEFA), Alopecurus myosuroides (ALOMY), Echinochloa crus-galli (ECHCG), Lolium perenne (LOLPE), Zea Mays (ZEAMX), Abutilon theophrasti (ABUTH), Amaranthus retroflexus (AMARE) and Setaria faberi (SETFA). After cultivation for one day (pre-emergence) under controlled conditions in a glasshouse (at 24/16° C., day/night; 14 hours light; 65% humidity), the plants were sprayed with an aqueous spray solution derived from the formulation of the technical active ingredient in acetone/water (50:50) solution containing 0.5% Tween 20 (polyoxyethelyene sorbitan monolaurate, CAS RN 9005-64-5). The test plants were then grown in a glasshouse under controlled conditions (at 24/16°, day/night; 14 hours light; 65% humidity) and watered twice daily. After 13 days, the test was evaluated (5=total damage to plant; 0=no damage to plant).

[2] = test system: Avena fatua (AVEFA); test: Post-emergence herbicidal activity, Avena fatua
Experimental: (§2) Seeds of a variety of test species were sown in standard soil in pots: Triticum aestivium (TRZAW), Avena fatua (AVEFA), Alopecurus myosuroides (ALOMY), Echinochloa crus-galli (ECHCG), Lolium perenne (LOLPE), Zea Mays (ZEAMX), Abutilon theophrasti (ABUTH), Amaranthus retroflexus (AMARE) and Setaria faberi (SETFA). After 8 days cultivation (post-emergence) under controlled conditions in a glasshouse (at 24/16° C., day/night; 14 hours light; 65% humidity), the plants were sprayed with an aqueous spray solution derived from the formulation of the technical active ingredient in acetone/water (50:50) solution containing 0.5% Tween 20 (polyoxyethelyene sorbitan monolaurate, CAS RN 9005-64-5). The test plants were then grown in a glasshouse under controlled conditions (at 24/16° C., day/night; 14 hours light; 65% humidity) and watered twice daily. After 13 days, the test was evaluated (5=total damage to plant; 0=no damage to plant).

[3] = test system: Lolium perenne (LOLPE); test: Post-emergence herbicidal activity, Lolium perenne
Experimental: as §2

[4] = test system: Triticum aestivium (TRZAW); test: Pre-emergence herbicidal activity, Triticum aestivium; parameters: key: 5=total damage to plant; 0=no damage to plant
Experimental: as §1

[5] = test system: Setaria faberi (SETFA); test: Post-emergence herbicidal activity, Setaria faberi; parameters: key: 5=total damage to plant; 0=no damage to plant
Experimental: as §2

[6] = test system: Alopecurus myosuroides (ALOMY); test: Post-emergence herbicidal activity, Alopecurus myosuroides; parameters: key: 5=total damage to plant; 0=no damage to plant
Experimental: as §2

[7] = test system: Alopecurus myosuroides (ALOMY); test: Pre-emergence herbicidal activity, Alopecurus myosuroides; parameters: key: 5=total damage to plant; 0=no damage to plant
Experimental: as §1

[8] = test system: Triticum aestivium (TRZAW); test: Post-emergence herbicidal activity, Triticum aestivium; parameters: key: 5=total damage to plant; 0=no damage to plant
Experimental: as §2

[9] = test system: Echinochloa crus-galli (ECHCG); test: Post-emergence herbicidal activity, Echinochloa crus-galli; parameters: key: 5=total damage to plant; 0=no damage to plant
Experimental: as §2

[10] = test system: Setaria faberi (SETFA); test: Pre-emergence herbicidal activity, Setaria faberi; parameters: key: 5=total damage to plant; 0=no damage to plant
Experimental: as §1

[11] = test system: Echinochloa crus-galli (ECHCG); test: Pre-emergence herbicidal activity, Echinochloa crus-galli
Experimental: as §1

[12] = test system: Lolium perenne (LOLPE); test: Pre-emergence herbicidal activity, Lolium perenne; parameters: key: 5=total damage to plant; 0=no damage to plant
Experimental: as §1

Row | SMILES | Control of AVEFA after pre-emergence application (score 0-5) [1] | Control of AVEFA after post-emergence application (score 0-5) [2] | Control of LOLPE after post-emergence application (score 0-5) [3] | Control of TRAZW after pre-emergence application (score 0-5) [4] | Control of SETFA after post-emergence application (score 0-5) [5] | Control of ALOMY after post-emergence application (score 0-5) [6] | Control of ALOMY after pre-emergence application (score 0-5) [7] | Control of TRAZW after post-emergence application (score 0-5) [8] | Control of ECHCG after post-emergence application (score 0-5) [9] | Control of SETFA after pre-emergence application (score 0-5) [10] | Control of ECHCG after pre-emergence application (score 0-5) [11] | Control of LOLPE after pre-emergence application (score 0-5) [12]
1 | C#CCNC(=O)Nc1ccc(-c2cncc(F)c2)nc1C(F)(F)F [Compound B41] | 1 | 3 | 2 | 0 | 5 | 0 | 0 | 0 | 4 | 5 | 4 | 1
2 | CCCOC(=O)Nc1ccc(-c2cncc(F)c2)nc1C(F)(F)F [Compound B42] | 3 | 4 | 3 | 0 | 5 | 1 | 1 | 2 | 5 | 5 | 4 | 1
3 | CC(C)COC(=O)Nc1ccc(-c2cncc(F)c2)nc1C(F)(F)F [Compound B43] | 1 | 4 | 3 | 1 | 5 | 1 | 1 | 2 | 4 | 4 | 3 | 1
4 | CC(C)NC(=O)Nc1ccc(-c2cncnc2)nc1C(F)(F)F [Compound B44] | 2 | 3 | 2 | 0 | 4 | 1 | 0 | 1 | 4 | 3 | 3 | 1
5 | O=C1OCCN1c1ccc(-c2cncc(F)c2)nc1C(F)(F)F [Compound B45, 3-[6-(5-fluoro-3-pyridyl)-2-(trifluoromethyl)-3-pyridyl]oxazolidin-2-one] | 0 | 3 | 2 | 0 | 4 | 1 | 0 | 1 | 4 | 3 | 3 | 0
6 | CN1CCN(c2ccc(-c3cncc(F)c3)nc2C(F)(F)F)C1=O [Compound B46] | 1 | 3 | 2 | 0 | 4 | 0 | 0 | 0 | 4 | 4 | 2 | 0
7 | NC(=O)Nc1ccc(-c2cncc(F)c2)nc1C(F)(F)F [Compound B47] | 1 | 3 | 2 | 0 | 5 | 0 | 0 | 0 | 4 | 5 | 4 | 1
8 | CN1CCN(C(=O)Nc2ccc(-c3cncc(F)c3)nc2C(F)(F)F)CC1 [Compound B48] | 1 | 2 | 1 | 0 | 5 | 0 | 0 | 0 | 4 | 4 | 3 | 1
9 | CNC(=O)Nc1ccc(-c2cncc(F)c2)nc1C(F)(F)F [Compound B49] | 2 | 2 | 2 | 0 | 4 | 0 | 0 | 0 | 4 | 4 | 3 | 0
10 | O=C(Nc1ccc(-c2cncc(F)c2)nc1C(F)(F)F)NC1CCCC1 [Compound B50] | 1 | 3 | 1 | 0 | 5 | 0 | 0 | 0 | 4 | 4 | 2 | 1

Source: patent US20210127673A1, “HERBICIDES” (SYNGENTA PARTICIPATIONS AG, priority 2016, published 2021)
